Results: patent US11471465B2 (priority 2017, dated 2022)
Where two headings read alike, the source gives them in different places. Each block holds one molecule with its values, some of them ahead of it.

How the values were obtained:
[1] = cited from earlier work
[2] = Dissolution testing of the monolayer meloxicam/rizatriptan tablet in 0.01 N HCl, Example 4; type: physicochemical; settings: monolayer tablet of Example 4, 0.01 N HCl, 75 RPM, 37° C
[3] = Procedure: The effect of varying amounts of potassium carbonate (K2CO3) and sodium bicarbonate (NaHCO3) on the pH of acidic media was tested. The acidic media was chosen to simulate gastric conditions. K2CO3 or NaHCO3 was added to 50 mL of a 0.01 N HCl solution (pH 2). The pH of the solution was measured after addition of the K2CO3 or NaHCO3. Deionized water (240 mL) was then added to the mixture and pH was measured again.
[4] = test system: moderate and severe migraine; assay: Phase 3 placebo- and active-controlled trial (MOMENTUM), patients with inadequate response to prior acute treatments, Example 11
[5] = from 2 hours to 24 hours after dosing

percent dissolved ([2]; 0 min): 0% | percent dissolved ([2]; 15 min): 79% | percent dissolved ([2]; 30 min): 92% | percent dissolved ([2]; 45 min): 93% | percent dissolved ([2]; 60 min): 93% | percent dissolved ([2]; 90 min): 93% | percent dissolved ([2]; 120 min): 94%
Molecule: Cc1cnc(NC(=O)C2=C(O)c3ccccc3S(=O)(=O)N2C)s1 [Meloxicam]
AUC0-24 of meloxicam ([1]; 15 mg IV and intramuscular doses, human beings): about 27 μg·hr/mL | reported Tmax ([1]; intramuscular): 60 to 84 min | reported Tmax ([1]; intravenous bolus): ~3 min | reported Tmax ([1]; intravenous infusion): approximately 30 minutes

pH ([3]; 200 mg NaHCO3, 0.01 N HCl + 240 mL water): 5.41 | pH ([3]; 200 mg NaHCO3 added to 50 mL 0.01 N HCl): 5.28 | pH ([3]; 300 mg NaHCO3, 0.01 N HCl + 240 mL water): 5.89 | pH ([3]; 300 mg NaHCO3 added to 50 mL 0.01 N HCl): 5.90 | pH ([3]; 400 mg NaHCO3, 0.01 N HCl + 240 mL water): 6.11 | pH ([3]; 400 mg NaHCO3 added to 50 mL 0.01 N HCl): 6.44 | pH ([3]; 450 mg NaHCO3, 0.01 N HCl + 240 mL water): 6.46 | pH ([3]; 450 mg NaHCO3 added to 50 mL 0.01 N HCl): 6.86 | pH ([3]; 500 mg NaHCO3, 0.01 N HCl + 240 mL water): 8.33 | pH ([3]; 500 mg NaHCO3 added to 50 mL 0.01 N HCl): 8.23 | pH ([3]; 750 mg NaHCO3, 0.01 N HCl + 240 mL water): 8.54 | pH ([3]; 750 mg NaHCO3 added to 50 mL 0.01 N HCl): 8.30 | pH ([3]; 1000 mg NaHCO3, 0.01 N HCl + 240 mL water): 8.60 | pH ([3]; 1000 mg NaHCO3 added to 50 mL 0.01 N HCl): 8.36
Molecule: O=C([O-])O.[Na+] [NaHCO3, sodium bicarbonate]

Molecule: Rizatriptan
percent dissolved ([2]; 0 min): 0% | percent dissolved ([2]; 15 min): 89% | percent dissolved ([2]; 30 min): 102% | percent dissolved ([2]; 45 min): 103% | percent dissolved ([2]; 60 min): 103% | percent dissolved ([2]; 90 min): 103% | percent dissolved ([2]; 120 min): 103% | patients experiencing relapse of pain ([4]; 48-hour period after dosing): 45.2% | probability of experiencing pain relief ([4]; 24 hours after taking): approximately 60% | proportion of patients experiencing pain relief ([4]; […] after dosing): 52.5% | percentage of patients achieving sustained pain freedom [4, 5]: 11.2% | percentage of patients experiencing sustained pain relief [4, 5]: 43.9% | percentage of patients experiencing sustained pain freedom ([4]; from 2 hours to 48 hours): 8.8% | percentage of patients experiencing sustained pain relief ([4]; from 2 hours to 48 hours): 36.5% | median time to pain relief ([4]; human, in vivo): 4 h | Any Treatment-Emergent Adverse Event, % of subjects ([4]; single dose): (15.4%) | Any Treatment-Emergent Adverse Event, number of subjects ([4]; single dose): 67 | Dizziness, % of subjects ([4]; single dose): (2.1%) | Dizziness, number of subjects ([4]; single dose): 9 | Nausea, % of subjects ([4]; single dose): (4.8%) | Nausea, number of subjects ([4]; single dose): 21 | Somnolence, % of subjects ([4]; single dose): (2.1%) | Somnolence, number of subjects ([4]; single dose): 9 | patients who used rescue medication ([4]; through hour 24 post dose): 34.7%

pH ([3]; 25 mg K2CO3 added to 50 mL 0.01 N HCl): 2.84 | pH ([3]; 35 mg K2CO3 added to 50 mL 0.01 N HCl): 6.29 | pH ([3]; 45 mg K2CO3 added to 50 mL 0.01 N HCl): 8.05 | pH ([3]; 50 mg K2CO3 added to 50 mL 0.01 N HCl): 8.29 | pH ([3]; 100 mg K2CO3 added to 50 mL 0.01 N HCl): 9.43 | pH ([3]; 200 mg K2CO3, 0.01 N HCl + 240 mL water): 10.27 | pH ([3]; 200 mg K2CO3 added to 50 mL 0.01 N HCl): 10.14 | pH ([3]; 300 mg K2CO3, 0.01 N HCl + 240 mL water): 10.46 | pH ([3]; 300 mg K2CO3 added to 50 mL 0.01 N HCl): 10.39 | pH ([3]; 400 mg K2CO3, 0.01 N HCl + 240 mL water): 10.57 | pH ([3]; 400 mg K2CO3 added to 50 mL 0.01 N HCl): 10.55 | pH ([3]; 450 mg K2CO3, 0.01 N HCl + 240 mL water): 10.63 | pH ([3]; 450 mg K2CO3 added to 50 mL 0.01 N HCl): 10.58
Molecule: O=C([O-])[O-].[K+].[K+] [Tablet K2CO3, potassium carbonate]
